Reference: PubChem BioAssay AID330 (DTP/NCI, 2004)
Several values for one entry are separate records, joined by “and”; a condition that tells them apart may be missing. Identical values can stand only once. Toxic doses and inconclusive results are not listed. Rule for the calls: active = survival T/C of 150% or more; inactive = T/C below 125% in these data.

Tested on: P388 leukemia ip, CD2F1 mice, survival T/C
Assay: NCI In Vivo Anticancer Drug Screen. Data for tumor model P388 Leukemia (intraperitoneal) in CD2F1 (CDF1) mice
Settings: endpoint: median survival time, higher = longer survival
Outline: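 Mice carrying the transplanted tumor received test compound or vehicle. Survival was recorded in each group, and the value is the treated-group measurement divided by that of the vehicle-treated control group.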

[1] = dose: 100.0 mg/kg/injection, schedule: Q01DX009 (ip), vehicle: saline with Tween-80
[2] = dose: 200.0 mg/kg/injection, schedule: Q01DX009 (ip), vehicle: saline with Tween-80
[3] = dose: 50.0 mg/kg/injection, schedule: Q01DX009 (ip), vehicle: Klucel (hydroxypropylcellulose) (HPC)
[4] = dose: 100.0 mg/kg/injection, schedule: Q01DX009 (ip), vehicle: Klucel (hydroxypropylcellulose) (HPC)
[5] = dose: 200.0 mg/kg/injection, schedule: Q01DX009 (ip), vehicle: Klucel (hydroxypropylcellulose) (HPC)
[6] = dose: 100.0 mg/kg/injection, schedule: Q01DX009 (ip), vehicle: saline
[7] = dose: 100.0 mg/kg/injection, schedule: Q04DX003 (ip), vehicle: saline
[8] = dose: 200.0 mg/kg/injection, schedule: Q01DX009 (ip), vehicle: saline
[9] = dose: 200.0 mg/kg/injection, schedule: Q04DX003 (ip), vehicle: saline
[10] = dose: 50.0 mg/kg/injection, schedule: Q01DX005 (ip), vehicle: saline with Tween-80
[11] = dose: 100.0 mg/kg/injection, schedule: Q01DX005 (ip), vehicle: saline with Tween-80
[12] = dose: 100.0 mg/kg/injection, schedule: Q01DX005 (ip), vehicle: Klucel (hydroxypropylcellulose) (HPC)
[13] = dose: 200.0 mg/kg/injection, schedule: Q01DX005 (ip), vehicle: Klucel (hydroxypropylcellulose) (HPC)
[14] = dose: 50.0 mg/kg/injection, schedule: Q01DX009 (ip), vehicle: saline with Tween-80
[15] = dose: 100.0 mg/kg/injection, schedule: Q01DX001 (ip), vehicle: saline with Tween-80

Measured: T/C

CP1(=O)CC(=O)CCCCC(=O)C1
inactive: dose: 6.25 mg/kg/injection, schedule: Q01DX009 (ip), vehicle: saline 104 % of control | dose: 12.5 mg/kg/injection, schedule: Q01DX009 (ip), vehicle: saline 114 % of control | dose: 25.0 mg/kg/injection, schedule: Q01DX009 (ip), vehicle: saline 104 % of control | [1] 100 % of control | [2] 98 % of control

O=C(Nc1ccccc1)C1C(=O)C(=O)N(c2ccccc2)C1=O (stereo not given)
inactive: [3] 107 % of control | [4] 101 % of control | [5] 99 % of control

O=c1ccn2ccccc2n1
inactive: dose: 50.0 mg/kg/injection, schedule: Q01DX009 (ip), vehicle: saline 95 % of control | dose: 50.0 mg/kg/injection, schedule: Q04DX003 (ip), vehicle: saline 91 % of control | [6] 86 % of control | [7] 100 % of control | [8] 95 % of control | [9] 91 % of control

CCC(=O)OC1(c2ccccc2)CCP(C)(=S)CC1 (stereo not given)
inactive: [3] 97 % of control | [4] 106 % of control | [5] 101 % of control

COCN1C(=O)N2C(c3ccccc3)(c3ccccc3)C(C(=O)OC)=C(C(=O)OC)P12(c1ccccc1)c1ccccc1
inactive: dose: 15.0 mg/kg/injection, schedule: Q01DX005 (ip), vehicle: Klucel (hydroxypropylcellulose) (HPC) 107 % of control | dose: 30.0 mg/kg/injection, schedule: Q01DX005 (ip), vehicle: Klucel (hydroxypropylcellulose) (HPC) 99 % of control | dose: 60.0 mg/kg/injection, schedule: Q01DX005 (ip), vehicle: Klucel (hydroxypropylcellulose) (HPC) 91 % of control and 97 % of control | dose: 240.0 mg/kg/injection, schedule: Q01DX005 (ip), vehicle: Klucel (hydroxypropylcellulose) (HPC) 87 % of control

CCCCCCCC/C=C/CCCCCCCCCCCCBr
inactive: [6] 90 % of control | [7] 95 % of control | [8] 104 % of control | [9] 95 % of control | dose: 400.0 mg/kg/injection, schedule: Q01DX009 (ip), vehicle: saline 100 % of control | dose: 400.0 mg/kg/injection, schedule: Q04DX003 (ip), vehicle: saline 100 % of control

CN(C(=O)C(Cl)Cl)c1ccc(-c2csc(-c3ccccc3)n2)cc1
inactive: dose: 100.0 mg/kg/injection, schedule: Q04DX003 (ip), vehicle: Klucel (hydroxypropylcellulose) (HPC) 100 % of control | dose: 200.0 mg/kg/injection, schedule: Q04DX003 (ip), vehicle: Klucel (hydroxypropylcellulose) (HPC) 97 % of control | dose: 400.0 mg/kg/injection, schedule: Q04DX003 (ip), vehicle: Klucel (hydroxypropylcellulose) (HPC) 91 % of control

CN(C)N1C(=O)c2c(Cl)c(Cl)c(Cl)c(Cl)c2C1=O
inactive: [10] 94 % of control | [11] 89 % of control

O=C1c2ccccc2C(=C(c2ccccc2)c2ccccc2)c2ccccc21
inactive: dose: 50.0 mg/kg/injection, schedule: Q01DX005 (ip), vehicle: Klucel (hydroxypropylcellulose) (HPC) 89 % of control | [12] 88 % of control | [13] 86 % of control

CCCSCCCC(=O)O
inactive: [3] 100 % of control | [4] 100 % of control | [5] 104 % of control

O=C1C(=O)C2c3ccccc3C1c1ccccc12
inactive: dose: 50.0 mg/kg/injection, schedule: Q04DX002 (ip), vehicle: suspension in saline 101 % of control | dose: 100.0 mg/kg/injection, schedule: Q04DX002 (ip), vehicle: suspension in saline 106 % of control | dose: 200.0 mg/kg/injection, schedule: Q04DX002 (ip), vehicle: suspension in saline 112 % of control

C=C1C(=O)OC(CCCCCCCCCCCCCC(C)=O)[C@H]1C(=O)O (stereo not given in full)
inactive: dose: 5.0 mg/kg/injection, schedule: Q01DX005 (ip), vehicle: Klucel (hydroxypropylcellulose) (HPC) 93 % of control | dose: 5.0 mg/kg/injection, schedule: Q01DX005 (ip), vehicle: saline 93 % of control | dose: 10.0 mg/kg/injection, schedule: Q01DX005 (ip), vehicle: Klucel (hydroxypropylcellulose) (HPC) 90 % of control | dose: 10.0 mg/kg/injection, schedule: Q01DX005 (ip), vehicle: saline 91 % of control | dose: 20.0 mg/kg/injection, schedule: Q01DX005 (ip), vehicle: Klucel (hydroxypropylcellulose) (HPC) 110 % of control and 90 % of control and 107 % of control | dose: 20.0 mg/kg/injection, schedule: Q01DX005 (ip), vehicle: saline 96 % of control | dose: 40.0 mg/kg/injection, schedule: Q01DX005 (ip), vehicle: Klucel (hydroxypropylcellulose) (HPC) 105 % of control and 98 % of control | dose: 80.0 mg/kg/injection, schedule: Q01DX005 (ip), vehicle: Klucel (hydroxypropylcellulose) (HPC) 107 % of control

O=C(CC1C2CC3CC(C2)CC1C3)C1C2CC3CC(C2)CC1C3 (stereo not given)
inactive: [14] 97 % of control | [1] 97 % of control | [2] 97 % of control

CC(C)(C)NC/C(C#N)=C\c1ccccc1
inactive: dose: 25.0 mg/kg/injection, schedule: Q01DX001 (ip), vehicle: saline with Tween-80 102 % of control | dose: 50.0 mg/kg/injection, schedule: Q01DX001 (ip), vehicle: saline with Tween-80 99 % of control | [15] 97 % of control

O=C(/C=C/c1ccccc1)OCC12OC1C(O)C1C=COC(OC3OC(CO)C(O)C(O)C3O)C12 (stereo not given)
inactive: dose: 4.38 mg/kg/injection, schedule: Q01DX005 (ip), vehicle: Klucel (hydroxypropylcellulose) (HPC) 96 % of control | dose: 8.75 mg/kg/injection, schedule: Q01DX005 (ip), vehicle: Klucel (hydroxypropylcellulose) (HPC) 94 % of control | dose: 17.5 mg/kg/injection, schedule: Q01DX005 (ip), vehicle: Klucel (hydroxypropylcellulose) (HPC) 97 % of control | dose: 35.0 mg/kg/injection, schedule: Q01DX005 (ip), vehicle: Klucel (hydroxypropylcellulose) (HPC) 97 % of control | dose: 70.0 mg/kg/injection, schedule: Q01DX005 (ip), vehicle: Klucel (hydroxypropylcellulose) (HPC) 97 % of control | [12] 95 % of control | [13] 103 % of control

N#CC1C(=O)NC(=O)C(C#N)C1c1ccc(Cl)cc1 (stereo not given)
inactive: [3] 101 % of control | [4] 100 % of control | [5] 101 % of control

C1C2OC2C2C1C1CC2C2OC12 (stereo not given)
inactive: dose: 6.25 mg/kg/injection, schedule: Q01DX009 (ip), vehicle: Klucel (hydroxypropylcellulose) (HPC) 105 % of control | dose: 12.5 mg/kg/injection, schedule: Q01DX009 (ip), vehicle: Klucel (hydroxypropylcellulose) (HPC) 96 % of control | dose: 25.0 mg/kg/injection, schedule: Q01DX009 (ip), vehicle: Klucel (hydroxypropylcellulose) (HPC) 99 % of control

CCCCCCCCCCCCCCCCc1c(C(=O)OC)nc(N)[nH]c1=O
inactive: dose: 3.75 mg/kg/injection, schedule: Q01DX005 (ip), vehicle: saline with Tween-80 99 % of control | dose: 7.5 mg/kg/injection, schedule: Q01DX005 (ip), vehicle: saline with Tween-80 100 % of control | dose: 15.0 mg/kg/injection, schedule: Q01DX005 (ip), vehicle: saline with Tween-80 103 % of control

Nc1nc2ncc(CNc3ccc(C(=O)NC(CCC(=O)O)C(=O)O)cc3)cc2c(=O)[nH]1 (stereo not given)
inactive: [10] 100 % of control | [11] 117 % of control | dose: 200.0 mg/kg/injection, schedule: Q01DX005 (ip), vehicle: saline with Tween-80 102 % of control

CC(C)c1cc(C(C)C)c(S(=O)(=O)ON)c(C(C)C)c1
inactive: dose: 100.0 mg/kg/injection, schedule: Q04DX002 (ip), vehicle: saline 112 % of control | dose: 200.0 mg/kg/injection, schedule: Q04DX002 (ip), vehicle: saline 99 % of control

O=c1oc(-c2cccc(I)c2)ns1
inactive: [4] 111 % of control | [5] 114 % of control

CCCCOC1OCN(C2CCCCC2)CC1(C)C (stereo not given)
inactive: [14] 104 % of control and 121 % of control | dose: 400.0 mg/kg/injection, schedule: Q01DX009 (ip), vehicle: saline with Tween-80 120 % of control

COC(=O)c1cc(C)n(Cc2ccccc2)c1
inactive: [15] 97 % of control | dose: 200.0 mg/kg/injection, schedule: Q01DX001 (ip), vehicle: saline with Tween-80 99 % of control | dose: 400.0 mg/kg/injection, schedule: Q01DX001 (ip), vehicle: saline with Tween-80 97 % of control

CS(=O)(=O)OCCC[Se]Cc1ccccc1C[Se]CCCOS(C)(=O)=O
inactive: dose: 60.0 mg/kg/injection, schedule: Q01DX005 (ip), vehicle: saline with Tween-80 93 % of control | dose: 120.0 mg/kg/injection, schedule: Q01DX005 (ip), vehicle: saline with Tween-80 91 % of control
